In ChEMBL document CHEMBL1137583 (Bioorg Med Chem Lett, 2007):

Legend:
[1] = biological target: Melanin-concentrating hormone receptor 1 (Homo sapiens, UniProt Q99705); assay: Inhibition of 125I-MCH binding to human MCH-R1 expressed in CHO cell membranes
[2] = AUC (0-6hr) in rats following 10 mg/kg peroral dose; assay type: ADME, organism-based; parameters: time < 6 hr, dose 10 mg/kg, route oral; details: rat, plasma, po
Mus musculus = assay: Inhibition of ex vivo MCH-R1 binding following 30 mg/kg peroral dose in mice after 6hr; assay type: functional; details: route oral

Melanin-concentrating hormone receptor 1, sequence (Q99705 whole entry): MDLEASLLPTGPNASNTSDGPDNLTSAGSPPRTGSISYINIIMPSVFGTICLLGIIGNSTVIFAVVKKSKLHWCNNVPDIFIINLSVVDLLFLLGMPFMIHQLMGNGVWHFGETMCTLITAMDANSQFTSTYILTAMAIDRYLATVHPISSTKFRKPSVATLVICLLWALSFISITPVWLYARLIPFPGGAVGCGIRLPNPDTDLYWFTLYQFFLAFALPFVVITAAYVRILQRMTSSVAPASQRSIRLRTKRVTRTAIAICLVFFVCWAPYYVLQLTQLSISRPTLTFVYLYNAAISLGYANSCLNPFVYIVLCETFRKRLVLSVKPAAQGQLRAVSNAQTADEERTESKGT

Row | Compound | Ki [1] | AUC(0-t) at 6 h [2] | inhibition in vivo at 30 mg/kg (Mus musculus)
1 | CN1CCN(CCCN(C(=O)Nc2ccc(F)c(Cl)c2)C2CCc3cc(C#N)ccc3C2)CC1 (centres undefined) | 340 nM | – | –
2 | CN1CCN(CCCN(C(=O)Nc2ccc(F)c(Cl)c2)[C@@H]2CC[C@]3(c4cccc(C#N)c4)C[C@@H]3C2)CC1 | 4 nM | – | –
3 | COc1ccc2c(c1)CCC(N(CCCN1CCN(C)CC1)C(=O)Nc1ccc(F)c(Cl)c1)C2 (centres undefined) | 190 nM | – | –
4 | CN1CCN(CCCN(C(=O)Nc2ccc(F)c(Cl)c2)C2CCc3ccccc3C2)CC1 (centres undefined) | 380 nM | – | –
5 | CCNC(=O)Nc1ccc2c(c1)CC(N(CCCN1CCN(C)CC1)C(=O)Nc1ccc(F)c(Cl)c1)CC2 (centres undefined) | 160 nM | – | –

More lines, main results first:

Row | Ki [1] | AUC(0-t) at 6 h [2] | Compound | inhibition in vivo at 30 mg/kg (Mus musculus)
6 | 3000 nM | – | CN1CCN(CCCN(C(=O)Nc2ccc(F)c(Cl)c2)C2CCc3ccc(S(=O)(=O)N(C)C)cc3C2)CC1 (centres undefined) | –
7 | 1300 nM | – | CN1CCN(CCCN(C(=O)Nc2ccc(F)c(Cl)c2)C2CCc3ccc(S(C)(=O)=O)cc3C2)CC1 (centres undefined) | –
8 | – | 195 ng·h/mL | CC(=O)Nc1ccc2c(c1)CC(N(CCCN1CCN(C)CC1)C(=O)Nc1ccc(F)c(Cl)c1)CC2 (centres undefined) | 23%
9 | 3000 nM | – | CNS(=O)(=O)c1ccc2c(c1)CC(N(CCCN1CCN(C)CC1)C(=O)Nc1ccc(F)c(Cl)c1)CC2 (centres undefined) | –
10 | 8.5 nM | 642 ng·h/mL | CN1CCN(CCCN(C(=O)Nc2ccc(F)c(Cl)c2)C2CCc3ccc(C#N)cc3C2)CC1 (centres undefined) | 84%
11 | 260 nM | – | CN1CCN(CCCN(C(=O)Nc2ccc(F)c(Cl)c2)C2CCc3ccc(N)cc3C2)CC1 (centres undefined) | –
